Results as given in patent publication US11548911B2, “Cleavable linker for peptide synthesis” (ROCHE SEQUENCING SOLUTIONS, INC., priority 2018, dated 2023).
Non-standard residues stand in square brackets, D forms with d. Residues, ends and D or L forms follow the SMILES beside them. Aha = [N-]=[N+]=NCC[C@H](N)C(=O)O

Assay: Water solubility of hydrophobic peptide and its linker cleavage fragments
Assay type: physicochemical
Procedure: In order to enhance solubility of this peptide a variant was prepared in which a cleavable N-terminal poly-lysine tag was synthesized after the peptide sequence and incorporated cleavable linker 1: H-KKKKK—(linker 1) AhaGISFSIRFAIWIRFG-NH2 (10) (SEQ. ID. No: 3). Synthesis and purification of this modified peptide proceeded smoothly according to example 3 (FIG. 2B). Pure peptide 10 was dissolved in a 0.05 M aqueous NaHCO3 solution and shaken for 2 h at r.t. (FIG. 2A). The cleavage reaction released the two peptides 11 and 12: While the poly-lysine tag 11 is water soluble, peptide 12 precipitated under the reaction conditions and could be easily isolated in high purity by centrifugation. • FIG. 2B: LC-MS of H-KKKKK (linker 1)-AhaGISFSIRFAIWIRFG-NH2 (10), MS (ESI): 545.4 [M+5H]^5+, 681.6 [M+4H]^4+, 908.3 [M+3H]^3+, 1362.0 [M+2H]^2+. • FIG. 2C: MS (ESI) of insoluble peptide 12 (MS (ESI): 661.5 [M+3H]^3+, 991.3 [M+2H]^2+, 1322.0 […], 1983.1 [M+H]^+).

Q: For `CC[C@H](C)[C@H](NC(=O)CNC(=O)[C@@H](N)CCN=[N+]=[N-])C(=O)N[C@@H](CO)C(=O)N[C@@H](Cc1ccccc1)C(=O)N[C@@H](CO)C(=O)N[C@H](C(=O)N[C@@H](CCCNC(=N)N)C(=O)N[C@@H](Cc1ccccc1)C(=O)N[C@@H](C)C(=O)N[C@H](C(=O)N[C@@H](Cc1c[nH]c2ccccc12)C(=O)N[C@H](C(=O)N[C@@H](CCCNC(=N)N)C(=O)N[C@@H](Cc1ccccc1)C(=O)NCC(N)=O)[C@@H](C)CC)[C@@H](C)CC)[C@@H](C)CC` [H-AhaGISFSIRFAIWIRFG-NH2] (H-[Aha]GISFSIRFAIWIRFG-NH2), which solubility in water is on record?
A: insoluble in water
